Key:
BRN2 [1] = molecular target: T1, BRN2 (Homo sapiens, UniProt P20265); assay: cell-based; details: negative = activation; for inhibition at 10 µM: read-out: % BRN2 Inhibition (10 μM), 10 μM compound, 24 hours, 42D^ENZR cells stably expressing BRN2-luciferase reporter; for inhibition at 30 µM: read-out: % BRN2 Inhibition (30 μM), 30 μM compound, 24 hours, 42D^ENZR cells stably expressing BRN2-luciferase reporter
T1 sequence (P20265 1-443): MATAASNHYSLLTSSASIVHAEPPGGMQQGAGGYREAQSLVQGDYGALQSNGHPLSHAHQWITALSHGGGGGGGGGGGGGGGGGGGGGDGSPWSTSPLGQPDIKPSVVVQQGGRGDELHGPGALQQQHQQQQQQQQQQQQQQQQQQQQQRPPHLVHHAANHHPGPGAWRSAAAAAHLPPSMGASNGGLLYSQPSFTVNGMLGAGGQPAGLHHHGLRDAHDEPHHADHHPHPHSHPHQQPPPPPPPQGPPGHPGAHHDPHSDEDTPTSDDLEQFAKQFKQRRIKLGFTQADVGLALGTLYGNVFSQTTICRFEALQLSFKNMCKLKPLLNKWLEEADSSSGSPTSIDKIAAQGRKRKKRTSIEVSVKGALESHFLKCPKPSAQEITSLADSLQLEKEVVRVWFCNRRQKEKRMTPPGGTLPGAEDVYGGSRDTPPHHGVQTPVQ

BRN2 [2] = molecular target: T1, BRN2; assay: Drug Affinity Responsive Target Stability (DARTS) assay; type: binding; parameters: endogenous in cells; host or cells: 42D^ENZR cells; details: 42D^ENZR cell lysate, yes/no direct interaction with BRN2
Protocol: This in cell assay provides a yes/no answer to direct interaction between BRN2 inhibitor and protein. • i) Prepare and place the following on ice: • Pronase • TNC 10× • −500 mM Tris-HCl (pH 8.0) • −500 mM NaCl, 100 mM CaCl2 • DMSO • Drug • 10 mL NP40+Protease inhibitor+Phosphatase inhibitor solution (can store in 4° C. and use for up to 4 weeks): • −2 mL NP40 5× • −8 mL ddH2O • −1 PhosphoSTOP™ pill • −200 uL protease inhibitor 50×
2) Remove the growth medium from the cell plate (42D^ENZR) and add 10 mL of cold PBS/vanadate.
3) Scrape the cells. Remove the PBS-cell solution and add in a falcon tube.
4) Name a new 1.5 ml Eppendorf tube and put on ice to pre-chill.
5) Centrifuge the cells at 1500 for 5 minutes at 4° C. Remove supernatant and re-suspend the cells in 600 uL NP40 lysis buffer by pipetting up and down. If the cell pellet is small use less volume, for example 300 μl)
6) Transfer the lysing cells into the pre-chilled Eppendorf tube. Incubate on ice for 20 minutes. If not continuing the DARTS on the same day, you can put the lysate in −30 and work on it later.
7) Centrifuge the tube at maximum speed for 25-30 minutes at 4° C.
8) Discard the pellet (either transfer the supernatant in a new tube or just take out the pellet). […]
20) The samples are ready for Western blot gel running. […]

Structure (SMILES) | inhibition at 10 µM (BRN2 [1]) | inhibition at 30 µM (BRN2 [1]) | DARTS binding (BRN2 [2])
FC(F)(F)c1ccc2cc(-c3csc(-c4ccco4)n3)oc2c1 [VPC-18-51, 2-(Furan-2-yl)-4-(6-(trifluoromethyl)benzofuran-2-yl)thiazole] | 62.5% | 71.4% | binding
Clc1cc2cc(-c3csc(-c4ccc[nH]4)n3)oc2cc1Cl [VPC-18-142] | 29.1% | 53.6% | binding

Reference: patent US20220106304A1, “Transcription Factor BRN2 Inhibitory Compounds as Therapeutics and Methods for Their Use” (The University of British Columbia, priority 2018, published 2022)
